Assay results published in patent US20250312320A1, “METHOD AND TREATMENT FOR OSTEOARTHRITIS AND DISEASES OF CHONDROCYTE HYPERTROPHY” (The Royal Veterinary College, priority 2022, published 2025).
“Also recorded” adds a separate entry of the source.

Legend:
[1] = system: ATDC5 micromass; experiment: ATDC5 micromass treated with CDK8i: qPCR gene expression and morphology; type: cell-based, mouse; conditions: 1 μM
Protocol: ATDC5 and primary equine chondrocytes were cultured in micromasses and treated with a CDK8i to determine effects on gene expression during chondrogenic differentiation.
In more detail, for ATDC5 cells, 2.7×10^5 cells were seeded in a 10 μl droplet onto a 24-well plate and cultured in differentiation media supplemented with CDK8i for 7 days before switching to mineralisation media supplemented with CDK8i for a further 7 days to induce hypertrophic differentiation as previous. The CDK8i was either 1 μM BI1347 or 100 nM MSC2530818.
On days 7 and 14 DMSO control and BI1347/MSC2530818 treated ATDC5 micromasses were lysed in triplicate and RNA extracted using Reliaprep RNA miniprep system (Promega) before cDNA synthesis using High-capacity reverse transcriptase kit (Applied BioScience). Quantitative PCR (qPCR) analysis was carried out using 10 ng cDNA in iTaq mastermix (BioRad) according to manufacturer's instructions. Primer sequences for qPCR reactions are shown in Table 1. ΔCt values of genes expressed were normalised to reference housekeeper genes and subsequently used to generate relative expression. Significance was observed by conducting unpaired T-test with Welch correction.

[2] = system: THP-1 derived macrophages; experiment: LPS stimulated THP-1 derived macrophages: IL-1β ELISA of supernatant; type: cell-based, human; conditions: 100 nM, LPS 24 hrs
Protocol: THP-1 monocytes were differentiated into macrophages via treatment with 50 ng/ml phorbol 12-myristate 13-acetate (PMA) in THP-1 growth media (RPMI-1640, 100 μg/ml Primocin, 10% FBS, 0.05 mM β-mercaptoethanol) for 48 hours. Macrophages were then washed twice to remove PMA containing media before a 1-hour pretreatment with 1 μM BI1347 or 100 nM MSC2530818. Inflammatory stimulation was then initiated via the addition of lug/ml lipopolysaccharide (LPS) for 24 hours in the presence of 1 μM BI1347 or 100 nM MSC2530818. Gene expression analysis was subsequently carried out as previously outlined. For MSC2530818 treated/LPS stimulated cells, media supernatant was used for IL-1β cytokine analysis quantification via ELISA (PeproTech, ABTS Human IL-1β development ELISA) as per manufacturer instructions.

[3] = system: ihMSC (TERT immortalised human mesenchymal stromal cell line); experiment: ihMSC micromasses in chondrogenesis and IL1β OA disease degradation model; type: cell-based; conditions: 100 nM
Protocol: Additional experiments were carried out on primary chondrocytes (equine, canine and human) and ihMSC (TERT immortalised human mesenchymal stromal cell line) to investigate whether CDK8i protects from IL-1β induced degradation when added throughout the entirety of differentiation/IL-1β treatment. Briefly, ihMSCs were seeded at a density of 5×10^4 cells per 10 μl micromass and differentiated in ihMSC chondrogenic media (1% FBS, 1% Ab/Am, 1× Insulin-Transferrin-Selenium premix, 10 μM Y-27632, 100 nM dexamethasone, 50 μg/ml ascorbic acid, 20 ng/ml TGF-β3 (Peprotech)). Primary chondrocytes were seeded at 2.7×10^5 cells per 10 μl micromass and differentiated in primary chondrocyte differentiation media. All micromasses were differentiated for 12 days in the presence of 100 nM […] or DMSO. Some micromasses were processed for gene expression analysis/alcian blue staining on day 12, whilst others were treated with IL-β media (1% FBS, 1% Ab/Am, 10 ng/ml IL-1B) and CDK8i for 48-hours before processing for alcian blue staining/gene expression analysis on day 14 as previously described.

[4] = system: zebrafish embryo endochondral jaw bone; experiment: Zebrafish jaw analysis of hypertrophic zones; type: in vivo, zebrafish (Danio rerio); conditions: 50 nM or 100 nM, 24 hpf to 5 dpf, vs DMSO
Protocol: Several bones during zebrafish (Danio rerio) craniofacial development exist via endochondral ossification, thus the developing zebrafish embryo is a useful in vivo model of chondrocyte hypertrophy (Dietrich et al. (2021) “Skeletal Biology and Disease Modeling in Zebrafish”. J Bone Miner Res, 36:436-458. https://doi.org/10.1002/jbmr.4256). Embryos at 24 hpf were cultured in the E3 water ([…], 0.17 mM KCl, 0.33 mM CaCl2, 0.33 mM MgSO4, and 0.1% Methylene Blue) in the presence of 50 nM or 100 nM MSC2530818 or DMSO control up until 5 dpf, with E3 water refreshed every 2 days. At 5 dpf embryos were fixed in 4% PFA overnight at 4° C. before washing in 70% EtOH for 10 mins followed by 50% EtOH for a further 10 mins. Specimens were then incubated in alcian blue stain (0.1% Alcian blue, 70% EtOH, 30% Glacial acetic acid) overnight with gentle agitation before 30 min washes in 100, 80, 70% EtOH and 0.1% PBST. Specimens were digested for 1 hour in enzyme solution (10 mg/ml trypsin in 30% saturated sodium tetraborate) followed by a 1-hour incubation in bleaching solution (3% hydrogen peroxide, 1% potassium hydroxide). Specimens were washed in 0.1% PBST and stored in 70% glycerol at 4° C. until imaging. Jaw sections were dissected and the number of enlarged cells within the entopterygoid/ceratohyal region were counted.

[5] = system: STR/Ort mouse tibial subchondral bone; experiment: STR/Ort mouse 12 week study: microCT of subchondral bone; type: in vivo; conditions: 5 mg/kg oral intermittently, 12 weeks, N=3/group
Protocol: Following the pilot study, a larger in vivo study using the STR/Ort OA mouse model was conducted. […]
On week 12 mice were sacrificed and hind limbs were fixed in 4% PFA for 48 hours before storing in 70% EtOH. Micro computed tomography (μCT) scans were carried out on hind limbs to analyse MSC2530818 effects on bone. Samples were wrapped in plastic film before scanning to prevent drying and scanned using the Skyscan 1172F (Bruker). Whole limbs were scanned with X-ray settings 50 kV and 200 μA, using an aluminum 0.5 mm filter, 960 ms exposure time and 5 μm pixel size. Scanned images were reconstructed into tomograms using NRecon 1.7.3.1 (Bruker) using a reconstruction threshold with a minimum value of −1000 and maximum value of 9486 in Hounsfield units and repositioned using Dataviewer 1.5.4 (Bruker). Tibial subchondral bone regions were manually segmented and analysed using CTAn 1.18.4 (Bruker).

SMILES	micromass morphology ([1]; 14 days, vs DMSO)	COL2A1 expression, increase vs DMSO ([1]; day 7)	Mediator complex gene expression vs DMSO ([1]; day 7)	ACAN expression, increase vs DMSO ([1]; day 7 (N.S))	ACAN expression, increase vs DMSO ([1]; day 14)	COL10A1 expression, decrease vs DMSO ([1]; day 14)	IL1β production / secretion into culture media, reduction [2]	ADAMTS5 gene expression, reduction vs DMSO [3]	ACAN gene expression, increase vs DMSO ([3]; OA disease model (+IL1β))	MATN3 gene expression, increase vs DMSO ([3]; OA disease model (+IL1β))	glycosaminoglycan (GAG; alcian blue stain) intensity vs DMSO ([3]; both conditions (−IL1β and +IL1β))	ACAN gene expression, increase vs DMSO ([3]; chondrogenic (−IL1β))	MATN3 gene expression, increase vs DMSO ([3]; chondrogenic (−IL1β))	size of the hypertrophic region and number of enlarged/hypertrophic cells [4]	subchondral bone surface area vs DMSO [5]	subchondral bone surface density vs DMSO [5]	subchondral bone volume/total volume (BV/TV) vs DMSO [5]
CN(C)C(=O)Cn1cc(-c2ccc(-c3cncc4ccccc34)cc2)cn1 [BI1347]	visible increase in extracellular matrix production; also recorded: visibly larger, more rounded and resembled the appearance of healthy cartilage	4.7 fold	robustly downregulated; also recorded: overall reduction	6 fold	6 fold	5.3 fold											
Cc1n[nH]c2ncc(C(=O)N3CCC[C@H]3c3ccc(Cl)cc3)cc12 [MSC2530818]							1.5 fold	1.3 fold	1.6 fold	3 fold	increase	3 fold	4 fold	dose dependent reduction	did not observe an alteration; also recorded: no difference	did not observe an alteration; also recorded: no difference	did not observe an alteration; also recorded: no difference
